According to ChEMBL document CHEMBL1156373, “Sesquiterpenes from the Formosan stolonifer Tubipora musica” (2001):
In brackets after ≈: the same amount, converted by molar mass.

The compounds below were run on P388 (assay: Cytotoxicity against mouse P388 cells). Details: read-out: ED50 (the source's name).
Format: functional
`CC(=O)OCC1=CC(C)=C[C@@]2(C)C[C@]3(C[C@H]12)C(=O)O[C@H]1O[C@H]13` [SPIROTUBIPOLIDE] showed an EC50 of 3.24 µg/mL (≈ 10.6 µM). `CC1=CC=C[C@@]2(C)C[C@@H]3OC(=O)C(C)=C3C[C@@H]12` [TUBIPOLIDE B] was tested, and the EC50 was 3.69 µg/mL (≈ 16 µM). Compound `CC(=O)OCC1=CC=C[C@@]2(C)C=C3OC(=O)C(C)=C3C[C@@H]12` [TUBIPOLIDE G] has an EC50 of 4.01 µg/mL (≈ 14 µM).
